The nature of data set [1]: Cytotoxicity assay (CellTiter-Glo) on normal human dermal fibroblasts. The class given is cell-based. Conditions: normal human dermal fibroblasts (NHDF). On the procedure:
The cytotoxicity of the compounds was evaluated in nontumor normal human dermal fibroblasts (NHDF) purchased from ATCC (PCS-201-012, Manassas, VA, USA). The cells were negatively tested for the presence of mycoplasma (cat. #: LT07-318 MycoAlert Mycoplasma Detection kit, Lonza). The cells were cultivated in DMEM high glucose 4.5 g/L medium (cat. #: R8758, Merck, Germany). The medium was supplemented with 10% fetal bovine serum (cat. #: F7524, Merck, Germany; inactivated at 56 °C for 30 min) and 1.0% of L-glutamine (cat. #: G7513, Merck, Germany) without antibiotics. Cells were seeded in 384-well format white micro plates (cat. #: 164610, Nunc, Thermo Fisher Scientific, USA) at a concentration of 60,000 cells per mL and left to rest overnight. Next day, 1 and 10 μM concentrations of the tested compounds were added in triplicates. The cells were cultivated at 37 °C and 5% CO2 for 72 h after which a luminescent cell viability assay (CellTiter-Glo 2.0, cat. #: Promega, Madison, USA) was added. The plate was left on a shaker (350 rpm) in the dark for 20 min at RT. Luminescence was measured by a Spark multimode reader from Tecan (Tecan Group Ltd., Switzerland). The signal of the compound-treated cells was related to the value of the untreated control, which was arbitrarily set to 100% viability.
A general note: ATP-based viability assays read luminescence as a measure of living cells.

Data set [2] is described as follows: Plasma stability assay, human plasma. The data set is classed as in vitro ADME. Particulars: pooled plasma, read-out: Plasma stability % remaining at 6 h, hum. On the procedure: […] The reactions were terminated by adding 4 vol of ice-cold methanol, and the samples were then mixed vigorously, frozen at −20 °C for 1 h, and left overnight at 8 °C. After that, the samples were centrifuged, and the supernatant was analyzed by means of LC–MS/MS Sciex 6500 triple quadrupole (Sciex, Framingham, MA, USA). Zero time points were prepared by adding ice-cold methanol to the compound prior to the addition of the plasma.

A short description of data set [3]: Plasma stability assay, rat plasma. The data set is classed as in vitro ADME.
Where [4] appears, read: 10 uM, read-out: NHDF viability at 10 uM (supplement csv).
[5] abbreviates: 10 μM, untreated control = 100%, read-out: NHDF Viability 10 μM.

SMILES strings stand for the structures. Like-named read-outs stand apart in the source and are kept apart here.

`O=C(OC[C@@H]1CCCN1)[C@@H]1[C@H]2C[C@H]3c4[nH]c5ccccc5c4CCN3C[C@@H]2CC[C@@H]1O` [Compound 4b, 17-α-Hydroxyyohimban-16-α-carboxylic acid (S)-Pyrrolidin-2-ylmethyl Ester]: the viability (usually a read-out of living cells in per cent, often relative to untreated cells) at 72 h, 1 µM in data set [1] was found to be 112%. Moreover, the viability at 72 h, 10 µM in data set [1] (setting [4]) and in data set [1] (setting [5]) was 103% each time.
Consider `CNCCOC(=O)[C@@H]1[C@H]2C[C@H]3c4[nH]c5ccccc5c4CCN3C[C@@H]2CC[C@@H]1O` [Compound 4c, 17-α-Hydroxyyohimban-16-α-carboxylic Acid 2-(Methylamino)ethyl Ester], for which the fraction remaining at 6 h, 5 μM in data set [2] (human plasma, 5 μM, 37 °C) is 91 ± 5%; in data set [3], 80 ± 1%. In addition, the viability at 72 h, 1 µM in data set [1] stood at 104%. In addition, the viability at 72 h, 10 µM in data set [1] (setting [4]) and in data set [1] (setting [5]) was 91% each time.
In the case of `O=C(OC[C@H]1CCCN1)[C@@H]1[C@H]2C[C@H]3c4[nH]c5ccccc5c4CCN3C[C@@H]2CC[C@@H]1O` [Compound 4a, 17-α-Hydroxyyohimban-16-α-carboxylic acid (R)-Pyrrolidin-2-ylmethyl Ester], the fraction remaining at 6 h, 5 μM in data set [2] (human plasma, 5 μM, 37 °C) was 88%; in data set [3], 68%. For the same compound, the viability at 72 h, 1 µM in data set [1] worked out at 113%. Moreover, the viability at 72 h, 10 µM in data set [1] (setting [4]) and in data set [1] (setting [5]) was 106% each time.
In the case of `O=C(NC1CNC1)[C@@H]1[C@H]2C[C@H]3c4[nH]c5ccccc5c4CCN3C[C@@H]2CC[C@@H]1O` [Compound 5b, 17-α-Hydroxyyohimban-16-α-carboxylic Acid N-(Azetidin-3-yl)amide], the viability at 72 h, 1 µM in data set [1] was determined as 88%. Besides, the viability at 72 h, 10 µM in data set [1] (setting [4]) and in data set [1] (setting [5]) was 88% in each case.
`O=C(OCC1CNC1)[C@@H]1[C@H]2C[C@H]3c4[nH]c5ccccc5c4CCN3C[C@@H]2CC[C@@H]1O` [Compound 4f, 17-α-Hydroxyyohimban-16-α-carboxylic Acid Azetidin-3-ylmethyl Ester]: in data set [1], the viability at 72 h, 1 µM came out at 119%. Moreover, the viability at 72 h, 10 µM in data set [1] (setting [4]) and in data set [1] (setting [5]) was 119% throughout.
For the compound `O=C(OC1CCCNC1)[C@@H]1[C@H]2C[C@H]3c4[nH]c5ccccc5c4CCN3C[C@@H]2CC[C@@H]1O` (stereo partly drawn) [Compound 4e, 17-α-Hydroxyyohimban-16-α-carboxylic Acid Piperidine-3-yl Ester], the viability at 72 h, 1 µM in data set [1] turned out to be 84%. The viability at 72 h, 10 µM in data set [1] (setting [4]) and in data set [1] (setting [5]) was 82% each time.
For `O=C(N[C@H]1CCNC1)[C@@H]1[C@H]2C[C@H]3c4[nH]c5ccccc5c4CCN3C[C@@H]2CC[C@@H]1O` [Compound 5a, 17-α-Hydroxyyohimban-16-α-carboxylic Acid (S)-N-(Pyrrolidin-3-yl)amide], the figures for the amount remaining at 6 h, 5 μM in data set [2] (human) and in data set [3] were 100 ± 1% and 114 ± 2%, respectively. Also, the viability at 72 h, 1 µM in data set [1] was 90%. In addition, the viability at 72 h, 10 µM in data set [1] (setting [4]) and in data set [1] (setting [5]) was 88% each time.
As for `O=C(OC[C@@H]1CCN1)[C@@H]1[C@H]2C[C@H]3c4[nH]c5ccccc5c4CCN3C[C@@H]2CC[C@@H]1O` [Compound 4h, 17-α-Hydroxyyohimban-16-α-carboxylic acid (S)-Azetidin-2-ylmethyl Ester], the viability at 72 h, 1 µM in data set [1] was 116%. The viability at 72 h, 10 µM in data set [1] (setting [4]) and in data set [1] (setting [5]) was 118% each time.

For the origin of these results see publication PMC11215778 (Journal of Medicinal Chemistry, 2024).
